Laboratory results taken from US20240415819A1, “MACROCYCLIC COMPOUNDS AS PROTEASOME SUBUNIT BETA TYPE-5 INHIBITORS” (Lead Discovery Center GmbH, priority 2021, published 2024).
pIC50: −log10 of the molar value.

System: hPMBC
Experiment: Chymotrypsin-like ProteasomeGlo assay in hPBMC
Format: cell-based
Conditions: Homo sapiens; read-out: Pglo hPBMC
From the text: Chymotrypsin-like ProteasomeGlo assay in the B-cells isolated from PBMC's following compound addition (IC50). • 1. PBMC's will be isolated from human blood followed by B-cell isolation from the PBMC's using the Miltenyi Isolation Kit. • 2. This experiment will use the Chymotrypsin-like ProteasomeGlo read-out to generate IC50's following compound treatment. • 3. Dilute all compounds 1:100 for the assay. • 4. […] Repeat the DMSO transfer with lane 12. • 5. Lane 12 should not be seeded with any cells. Only medium! • 6. For all steps, make sure the samples and reagents remain cool! • 7. While dealing with the buffy coats, be careful to not let any exposed skin to be in direct contact with the blood.
For the initial steps and to make processing the buffy coats easier, separately process the buffy coats. • a. Cut the tube attached to the buffy coats carefully using a clean, sterile and fresh scalpel. • b. Transfer the blood into 2 individual 50 ml falcons. • c. Add an equal volume of DPBS to the blood in the falcons. • d. Add ˜20 ml of lymphocyte separating medium to two 50 ml falcons. • e. Carefully pour 15-20 ml of the blood+DPBS mix from step c. onto the lymphocyte separating medium from step d. • f. Centrifuge the falcons with the lymphocyte separating medium+blood mix at 800×g for 15 minutes using a swing-out rotor. • g. Following centrifugation, carefully remove the falcons from the centrifuge. • h. The following layers will be observed: • i. Aspirate the plasma layer off carefully without disturbing the different layers. • j. Remove the cell pellet using a pipette into two fresh 50 ml falcons. • k. Fill the falcons with the cells up to 50 ml with DPBS. • l. Centrifuge the falcons at 250×g for 10 minutes using a swing-out rotor (Brake-off). • m. Aspirate the complete DPBS off the cells without disturbing the cell pellet at the bottom of the falcon. • n. Re-suspend the cell pellet in 10 ml of 1×RBC lysis buffer. • o. Incubate the falcons at room temperature in the dark for 10 minutes. • p. After RBC lysis, centrifuge the tubes at 250×g for 10 minutes using a swing-out rotor (brake-off). • (*Note: If the cell pellet is still red or light red, repeat steps n. to p.!) • q. Re-suspend the cell pellet in DPBS up to 50 ml in the falcon. • r. Centrifuge the falcons at 250×g for 10 minutes using a swing-out rotor (Brake-off). • s. Aspirate the DPBS off the cells without disturbing the cell pellet at the bottom of the falcon. • t. Repeat the wash step as described in steps q. to s. 2× times more (total number of washes is 3×). • u. Aspirate the DPBS completely off the cell pellet after the last wash without disturbing the cell pellet. • v. Re-suspend the cell pellet in 20 ml of PBMC cell medium. • w.
• a. Remove the plates with cells from the incubator. • b. Take all the plates including the compound plate, intermediate plate and Staurosporine plate to the ECHO. • c. Click on “Open” in the ECHO software and select the protocol “QLI5_25ul_30 uM-Grenier”. • d. Follow the on-screen prompts and instructions once you click “Start” to insert the compound plate, intermediate plate and destination plates. • e. Change the final number of destination plates on the program. • f. Follow the on-screen prompts and instructions once you click “Start” to load the Staurosporine and destination plates. • g. Once all the compounds, DMSO and Staurosporine have been transferred, place the destination plates in a wet tissue box. • h. Place the destination plates back into the incubator and incubate at 37° C., 5% CO2 for 105 minutes. • i. Re-seal all the compound+Stauro diamond and intermediate plates and store in the dark. Chymotrypsin like ProteasomeGlo Assay • 1. Thaw the components of the ProteasomeGlo assay at room temperature including the ProteasomeGlo Buffer, the lyophilized Luciferin Detection Reagent and the Suc-LLVY-Glo Substrate. • 2. […]

Question: With `CC(=O)N[C@H]1CC(=O)N2CCCC(CCOc3ccc(C)c(c3)CNC(=O)C(Cc3ccccc3)NC1=O)C2` (stereo partly drawn) [Compound 558, N-((12S)-9-benzyl-5^4-methyl-8,11,14-trioxo-4-oxa-7,10-diaza-1(3,1)-piperidina-5(1,3)-benzenacyclotetradecaphane-12-yl)acetamide] as the compound, how does the pIC50 read?
Answer: Its pIC50 is over 7.00.

Question: `COC(=O)N(CC1NC(=O)[C@@H](NC(C)=O)CC(=O)N2CCCC(CCOc3ccc(C)c(c3)CNC1=O)C2)c1ccccc1` (stereo partly drawn) [Compound 560, methyl (((12S)-12-acetamido-5^4-methyl-8,11,14-trioxo-4-oxa-7,10-diaza-1(3,1)-piperidina-5(1,3)-benzenacyclotetradecaphane-9-yl)methyl)(phenyl)carbamate] was tested. Which pIC50 did it give?
Answer: The pIC50 was over 7.00.

Question: How did the pIC50 turn out when `Cc1ccc2cc1CNC(=O)[C@H](CCc1ccccc1)NC(=O)[C@@H](NC(=O)Cc1cnc(N)s1)CC(=O)N1CCCC(CCO2)C1` (stereo partly drawn) [Compound 311, 2-(2-aminothiazol-5-yl)-N-((9S,12S)-5^4-methyl-8,11,14-trioxo-9-phenethyl-4-oxa-7,10-diaza-1(3,1)-piperidina-5(1,3)-benzenacyclotetradecaphane-12-yl)acetamide] was run?
Answer: The pIC50 was over 7.00.

Question: How did the pIC50 turn out when `Cc1ccc2cc1CNC(=O)[C@H](CCc1ccccc1)NC(=O)[C@@H](NC(=O)OCc1ccccc1)CCCC(=O)N1CCC(CCO2)C1` (stereo partly drawn) [Compound 352, benzyl ((9S, 12S)-5^4-methyl-8,11,16-trioxo-9-phenethyl-4-oxa-7,10-diaza-1(3,1)-pyrrolidina-5(1,3)-benzenacyclohexadecaphane-12-yl)carbamate] was run?
Answer: Its pIC50 is 6.30 to 7.00.

Question: How did the pIC50 turn out when `CC(=O)N[C@H]1CC(=O)N2CCCC(CCOc3ccc(C)c(c3)CNC(=O)C(c3cn(C)cn3)NC1=O)C2` (stereo partly drawn) [Compound 557, N-((12S)-5^4-methyl-9-(1-methyl-1H-imidazol-4-yl)-8,11,14-trioxo-4-oxa-7,10-diaza-1(3,1)-piperidina-5(1,3)-benzenacyclotetradecaphane-12-yl)acetamide] was run?
Answer: Its pIC50 is over 7.00.

Question: `CC(=O)N[C@H]1CC(=O)N2CCCC(CCOc3ccc(C)c(c3)CNC(=O)C(c3coc(C)n3)NC1=O)C2` (stereo partly drawn) [Compound 553, N-((12S)-5^4-methyl-9-(2-methyloxazol-4-yl)-8,11,14-trioxo-4-oxa-7,10-diaza-1(3,1)-piperidina-5(1,3)-benzenacyclotetradecaphane-12-yl)acetamide] was tested. Which pIC50 did it give?
Answer: Its pIC50 is over 7.00.

Question: How did the pIC50 turn out when `Cc1ccc2cc1CNC(=O)[C@H](CCc1ccccc1)NC(=O)[C@@H](NC(=O)Cc1cc(O)on1)CC(=O)N1CCCC(CCO2)C1` (stereo partly drawn) [Compound 335, 2-(5-hydroxyisoxazol-3-yl)-N-((9S,12S)-5^4-methyl-8,11,14-trioxo-9-phenethyl-4-oxa-7,10-diaza-1(3,1)-piperidina-5(1,3)-benzenacyclotetradecaphane-12-yl)acetamide] was run?
Answer: Its pIC50 is over 7.00.

Question: With `Cc1ccc2cc1CNC(=O)C(CCc1ccc(S(=O)(=O)O)cc1)NC(=O)[C@@H](NC(=O)OCc1ccccc1)CC(=O)N1CCCC(CCO2)C1` (stereo partly drawn) [Compound 509, 4-(2-((12S)-12-(((benzyloxy)carbonyl)amino)-5^4-methyl-8,11,14-trioxo-4-oxa-7,10-diaza-1(3,1)-piperidina-5(1,3)-benzenacyclotetradecaphane-9-yl)ethyl)benzenesulfonic acid] as the compound, how does the pIC50 read?
Answer: The pIC50 was 6.30 to 7.00.

Question: With `Cc1ccc2cc1CNC(=O)[C@H](CCc1ccccc1)NC(=O)[C@@H](NC(=O)OCc1ccccc1)CCCCC(=O)N1CC(CCO2)C1` [Compound 353, benzyl ((9S,12S)-5^4-methyl-8,11,17-trioxo-9-phenethyl-4-oxa-7,10-diaza-1(3,1)-azetidina-5(1,3)-benzenacycloheptadecaphane-12-yl)carbamate] as the compound, how does the pIC50 read?
Answer: The pIC50 was over 7.00.

Question: How did the pIC50 turn out when `CC(=O)N[C@H]1CC(=O)N2CCCC(CCOc3ccc(C)c(c3)CNC(=O)C(CCC3CCN(C(C)=O)CC3)NC1=O)C2` (stereo partly drawn) [Compound 338, N-((12S)-9-(2-(1-acetylpiperidin-4-yl)ethyl)-5^4-methyl-8,11,14-trioxo-4-oxa-7,10-diaza-1(3,1)-piperidina-5(1,3)-benzenacyclotetradecaphane-12-yl)acetamide] was run?
Answer: The pIC50 was over 7.00.
